Reference: paper PMC8401933 (Molecules, 2021)

Tests used:
MAP4K4 = target: T1, MAP4K4 (Homo sapiens, UniProt O95819); assay: KINOMEscan binding; conditions: read-out: Percent Control
T1 construct: purchased Eurofins DiscoverX KINOMEscan

SGK3 = target: T2, SGK3 (Homo sapiens, UniProt Q96BR1); assay: KINOMEscan binding; conditions: read-out: Percent Control
T2 construct: purchased Eurofins DiscoverX KINOMEscan

PIM1 = target: T3, PIM1 (Homo sapiens, UniProt P11309); assay: KINOMEscan binding; conditions: read-out: Percent Control
T3 construct: purchased Eurofins DiscoverX KINOMEscan

MYO3B = target: T4, MYO3B (Homo sapiens, UniProt Q8WXR4); assay: KINOMEscan binding; conditions: read-out: Percent Control
T4 construct: purchased Eurofins DiscoverX KINOMEscan

YANK1 = target: T5, YANK1 (Homo sapiens, UniProt Q8WU08); assay: KINOMEscan binding; conditions: read-out: Percent Control
T5 construct: purchased Eurofins DiscoverX KINOMEscan
T5 sequence (Q8WU08 whole entry): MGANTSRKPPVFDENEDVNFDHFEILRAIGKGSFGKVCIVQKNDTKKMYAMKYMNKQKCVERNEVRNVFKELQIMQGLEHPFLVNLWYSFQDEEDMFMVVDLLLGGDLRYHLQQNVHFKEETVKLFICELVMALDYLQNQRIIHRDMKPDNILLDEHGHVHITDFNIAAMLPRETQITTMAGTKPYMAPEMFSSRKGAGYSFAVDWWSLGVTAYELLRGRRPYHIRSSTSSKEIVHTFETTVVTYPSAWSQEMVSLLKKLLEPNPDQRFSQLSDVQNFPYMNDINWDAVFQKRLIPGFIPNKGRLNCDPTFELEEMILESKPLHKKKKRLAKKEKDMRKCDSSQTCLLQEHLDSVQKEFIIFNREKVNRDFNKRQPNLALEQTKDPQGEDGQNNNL

BMX = target: T6, BMX (Homo sapiens, UniProt P51813); assay: KINOMEscan binding; conditions: read-out: Percent Control
T6 construct: purchased Eurofins DiscoverX KINOMEscan

LTK = target: T7, LTK (Homo sapiens, UniProt P29376); assay: KINOMEscan binding; conditions: read-out: Percent Control
T7 construct: purchased Eurofins DiscoverX KINOMEscan
T7 sequence (P29376 17-864): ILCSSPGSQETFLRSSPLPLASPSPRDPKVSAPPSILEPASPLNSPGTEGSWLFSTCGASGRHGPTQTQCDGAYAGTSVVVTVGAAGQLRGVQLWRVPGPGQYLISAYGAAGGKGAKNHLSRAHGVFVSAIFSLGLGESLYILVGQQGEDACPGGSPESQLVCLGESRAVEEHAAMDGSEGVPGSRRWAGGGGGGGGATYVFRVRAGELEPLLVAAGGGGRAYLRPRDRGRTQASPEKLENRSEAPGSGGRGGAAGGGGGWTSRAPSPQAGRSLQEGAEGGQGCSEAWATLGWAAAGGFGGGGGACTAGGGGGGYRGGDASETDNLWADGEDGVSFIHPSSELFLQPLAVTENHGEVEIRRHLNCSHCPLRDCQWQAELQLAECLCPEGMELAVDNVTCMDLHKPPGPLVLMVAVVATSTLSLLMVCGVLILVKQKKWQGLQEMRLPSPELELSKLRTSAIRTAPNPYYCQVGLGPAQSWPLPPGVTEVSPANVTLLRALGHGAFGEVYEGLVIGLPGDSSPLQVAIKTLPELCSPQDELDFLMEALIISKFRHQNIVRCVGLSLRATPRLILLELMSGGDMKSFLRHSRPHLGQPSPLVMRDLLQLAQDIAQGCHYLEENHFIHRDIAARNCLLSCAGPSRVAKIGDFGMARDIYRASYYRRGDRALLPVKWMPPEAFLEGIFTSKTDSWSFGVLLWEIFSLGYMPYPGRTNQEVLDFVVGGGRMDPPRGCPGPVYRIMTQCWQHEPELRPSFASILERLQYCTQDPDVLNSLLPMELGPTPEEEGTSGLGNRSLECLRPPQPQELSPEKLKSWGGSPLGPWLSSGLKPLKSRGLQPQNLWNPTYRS

STK16 = target: T8, STK16 (Homo sapiens, UniProt O75716); assay: KINOMEscan binding; conditions: read-out: Percent Control
T8 construct: purchased Eurofins DiscoverX KINOMEscan

PKMYT1 = target: T9, PKMYT1 (Homo sapiens, UniProt Q99640); assay: KINOMEscan binding; conditions: read-out: Percent Control
T9 construct: purchased Eurofins DiscoverX KINOMEscan

RET(V804L) = target: T10, RET(V804L) (Homo sapiens, UniProt P07949, V804L); assay: KINOMEscan binding; conditions: read-out: Percent Control
T10 construct: purchased Eurofins DiscoverX KINOMEscan

MARK4 = target: T11, MARK4 (Homo sapiens, UniProt Q96L34); assay: KINOMEscan binding; conditions: read-out: Percent Control
T11 construct: purchased Eurofins DiscoverX KINOMEscan

EPHA7 = target: T12, EPHA7 (Homo sapiens, UniProt Q15375); assay: KINOMEscan binding; conditions: read-out: Percent Control
T12 construct: purchased Eurofins DiscoverX KINOMEscan

PYK2 = target: T13, PYK2 (Homo sapiens, UniProt Q14289); assay: KINOMEscan binding; conditions: read-out: Percent Control
T13 construct: purchased Eurofins DiscoverX KINOMEscan

TAOK3 = target: T14, TAOK3 (Homo sapiens, UniProt Q9H2K8); assay: KINOMEscan binding; conditions: read-out: Percent Control
T14 construct: purchased Eurofins DiscoverX KINOMEscan

PIK3CA(E545A) = target: T15, PIK3CA(E545A) (Homo sapiens, UniProt P42336, E545A); assay: KINOMEscan binding; conditions: read-out: Percent Control
T15 construct: purchased Eurofins DiscoverX KINOMEscan
T15 sequence (P42336 whole entry E545A): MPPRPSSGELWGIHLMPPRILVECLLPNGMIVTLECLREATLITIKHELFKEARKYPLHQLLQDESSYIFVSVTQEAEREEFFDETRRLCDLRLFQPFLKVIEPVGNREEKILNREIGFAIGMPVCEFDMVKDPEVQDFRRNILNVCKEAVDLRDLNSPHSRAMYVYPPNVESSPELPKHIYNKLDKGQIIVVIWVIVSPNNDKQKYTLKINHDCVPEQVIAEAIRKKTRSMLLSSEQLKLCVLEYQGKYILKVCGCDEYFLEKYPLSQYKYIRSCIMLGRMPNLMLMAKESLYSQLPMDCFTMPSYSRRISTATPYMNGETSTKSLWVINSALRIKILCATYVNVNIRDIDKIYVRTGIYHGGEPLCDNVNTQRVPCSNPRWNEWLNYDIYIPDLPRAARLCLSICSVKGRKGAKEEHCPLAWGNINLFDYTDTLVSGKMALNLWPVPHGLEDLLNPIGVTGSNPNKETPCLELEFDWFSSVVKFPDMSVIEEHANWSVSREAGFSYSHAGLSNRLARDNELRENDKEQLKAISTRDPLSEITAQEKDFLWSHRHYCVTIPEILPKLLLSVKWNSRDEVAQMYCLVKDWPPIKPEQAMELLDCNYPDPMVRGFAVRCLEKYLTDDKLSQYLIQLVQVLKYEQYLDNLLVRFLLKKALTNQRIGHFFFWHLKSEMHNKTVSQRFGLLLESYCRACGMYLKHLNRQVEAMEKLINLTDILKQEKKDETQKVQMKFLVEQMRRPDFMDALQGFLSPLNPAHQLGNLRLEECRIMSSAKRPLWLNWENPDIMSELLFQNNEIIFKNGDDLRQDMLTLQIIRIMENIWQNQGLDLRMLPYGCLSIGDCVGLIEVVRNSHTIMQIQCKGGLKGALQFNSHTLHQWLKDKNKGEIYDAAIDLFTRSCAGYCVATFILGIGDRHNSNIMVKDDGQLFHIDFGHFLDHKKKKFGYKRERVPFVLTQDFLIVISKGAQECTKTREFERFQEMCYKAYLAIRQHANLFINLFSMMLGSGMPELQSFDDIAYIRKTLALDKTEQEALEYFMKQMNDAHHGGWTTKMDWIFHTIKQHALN

WEE2 = target: T16, WEE2 (Homo sapiens, UniProt P0C1S8); assay: KINOMEscan binding; conditions: read-out: Percent Control
T16 construct: purchased Eurofins DiscoverX KINOMEscan
T16 sequence (P0C1S8 whole entry): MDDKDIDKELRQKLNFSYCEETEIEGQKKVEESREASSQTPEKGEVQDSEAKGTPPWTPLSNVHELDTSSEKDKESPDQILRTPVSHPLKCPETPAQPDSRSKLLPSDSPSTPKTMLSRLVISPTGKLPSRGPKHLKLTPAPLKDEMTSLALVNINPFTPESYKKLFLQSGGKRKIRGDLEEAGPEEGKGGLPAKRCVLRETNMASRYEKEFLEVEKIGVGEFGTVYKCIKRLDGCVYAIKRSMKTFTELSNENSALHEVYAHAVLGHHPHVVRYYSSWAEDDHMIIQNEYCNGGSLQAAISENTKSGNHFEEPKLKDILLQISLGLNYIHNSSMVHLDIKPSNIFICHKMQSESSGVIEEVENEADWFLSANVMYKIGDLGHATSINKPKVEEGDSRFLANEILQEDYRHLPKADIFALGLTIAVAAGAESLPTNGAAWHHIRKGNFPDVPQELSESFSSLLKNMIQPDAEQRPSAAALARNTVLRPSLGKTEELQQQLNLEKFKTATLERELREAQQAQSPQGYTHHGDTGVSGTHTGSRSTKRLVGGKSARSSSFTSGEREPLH

FGFR3(G697C) = target: T17, FGFR3(G697C) (Homo sapiens, UniProt P22607, G697C); assay: KINOMEscan binding; conditions: read-out: Percent Control
T17 construct: purchased Eurofins DiscoverX KINOMEscan
T17 sequence (P22607 23-806 G697C): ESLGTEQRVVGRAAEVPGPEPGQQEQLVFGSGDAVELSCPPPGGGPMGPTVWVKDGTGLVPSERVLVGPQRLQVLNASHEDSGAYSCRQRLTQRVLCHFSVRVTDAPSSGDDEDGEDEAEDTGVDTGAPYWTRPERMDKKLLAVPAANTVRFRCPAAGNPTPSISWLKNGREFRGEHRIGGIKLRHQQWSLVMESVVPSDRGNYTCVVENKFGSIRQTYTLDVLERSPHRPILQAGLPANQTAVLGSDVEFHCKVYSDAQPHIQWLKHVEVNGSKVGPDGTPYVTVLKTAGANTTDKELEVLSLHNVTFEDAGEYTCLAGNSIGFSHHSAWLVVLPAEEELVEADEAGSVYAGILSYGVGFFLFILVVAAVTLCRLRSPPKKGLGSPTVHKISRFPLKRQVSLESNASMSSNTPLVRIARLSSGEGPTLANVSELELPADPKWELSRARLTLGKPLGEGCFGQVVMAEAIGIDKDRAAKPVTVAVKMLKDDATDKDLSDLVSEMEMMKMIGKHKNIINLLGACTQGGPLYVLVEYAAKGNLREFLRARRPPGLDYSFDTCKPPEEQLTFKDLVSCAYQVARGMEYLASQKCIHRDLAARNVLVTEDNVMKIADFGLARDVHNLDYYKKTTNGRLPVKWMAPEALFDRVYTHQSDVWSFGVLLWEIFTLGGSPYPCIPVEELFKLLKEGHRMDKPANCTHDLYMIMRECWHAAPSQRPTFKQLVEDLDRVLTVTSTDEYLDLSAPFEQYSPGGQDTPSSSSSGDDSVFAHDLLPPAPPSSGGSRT

KIT(V559D,V654A) = target: T18, KIT(V559D,V654A) (Homo sapiens, UniProt P10721, V559D/V654A); assay: KINOMEscan binding; conditions: read-out: Percent Control
T18 construct: purchased Eurofins DiscoverX KINOMEscan

BMPR2 = target: T19, BMPR2 (Homo sapiens, UniProt Q13873); assay: KINOMEscan binding; conditions: read-out: Percent Control
T19 construct: purchased Eurofins DiscoverX KINOMEscan

FLT4 = target: T20, FLT4 (Homo sapiens, UniProt P35916); assay: KINOMEscan binding; conditions: read-out: Percent Control
T20 construct: purchased Eurofins DiscoverX KINOMEscan

CSF1R-autoinhibited = target: T21, CSF1R-autoinhibited (Homo sapiens, UniProt P07333); assay: KINOMEscan binding; conditions: read-out: Percent Control
T21 construct: purchased Eurofins DiscoverX KINOMEscan

MYLK = target: T22, MYLK (Homo sapiens, UniProt Q15746); assay: KINOMEscan binding; conditions: read-out: Percent Control
T22 construct: purchased Eurofins DiscoverX KINOMEscan

CAMKK1 = target: T23, CAMKK1 (Homo sapiens, UniProt Q8N5S9); assay: KINOMEscan binding; conditions: read-out: Percent Control
T23 construct: purchased Eurofins DiscoverX KINOMEscan

AMPK-alpha2 = target: T24, AMPK-alpha2 (Homo sapiens, UniProt P54646); assay: KINOMEscan binding; conditions: read-out: Percent Control
T24 construct: purchased Eurofins DiscoverX KINOMEscan
T24 sequence (P54646 whole entry): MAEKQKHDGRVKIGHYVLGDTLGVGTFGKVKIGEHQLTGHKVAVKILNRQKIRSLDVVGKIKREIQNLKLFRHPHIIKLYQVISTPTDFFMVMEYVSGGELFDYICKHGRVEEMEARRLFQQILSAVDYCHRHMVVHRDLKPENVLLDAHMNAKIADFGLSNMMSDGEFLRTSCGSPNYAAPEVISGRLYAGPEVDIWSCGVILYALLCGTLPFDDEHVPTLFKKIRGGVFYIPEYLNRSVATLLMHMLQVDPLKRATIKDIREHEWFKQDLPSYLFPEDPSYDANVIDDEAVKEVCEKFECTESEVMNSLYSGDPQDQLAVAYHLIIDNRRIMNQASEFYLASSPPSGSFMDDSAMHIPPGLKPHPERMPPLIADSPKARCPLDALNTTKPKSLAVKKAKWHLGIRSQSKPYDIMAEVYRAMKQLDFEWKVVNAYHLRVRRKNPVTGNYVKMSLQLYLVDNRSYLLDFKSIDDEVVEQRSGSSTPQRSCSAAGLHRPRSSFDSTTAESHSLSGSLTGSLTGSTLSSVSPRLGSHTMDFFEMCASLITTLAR

S6K1 = target: T25, S6K1 (Homo sapiens, UniProt P23443); assay: KINOMEscan binding; conditions: read-out: Percent Control
T25 construct: purchased Eurofins DiscoverX KINOMEscan

MELK = target: T26, MELK (Homo sapiens, UniProt Q14680); assay: KINOMEscan binding; conditions: read-out: Percent Control
T26 construct: purchased Eurofins DiscoverX KINOMEscan
T26 sequence (Q14680 whole entry): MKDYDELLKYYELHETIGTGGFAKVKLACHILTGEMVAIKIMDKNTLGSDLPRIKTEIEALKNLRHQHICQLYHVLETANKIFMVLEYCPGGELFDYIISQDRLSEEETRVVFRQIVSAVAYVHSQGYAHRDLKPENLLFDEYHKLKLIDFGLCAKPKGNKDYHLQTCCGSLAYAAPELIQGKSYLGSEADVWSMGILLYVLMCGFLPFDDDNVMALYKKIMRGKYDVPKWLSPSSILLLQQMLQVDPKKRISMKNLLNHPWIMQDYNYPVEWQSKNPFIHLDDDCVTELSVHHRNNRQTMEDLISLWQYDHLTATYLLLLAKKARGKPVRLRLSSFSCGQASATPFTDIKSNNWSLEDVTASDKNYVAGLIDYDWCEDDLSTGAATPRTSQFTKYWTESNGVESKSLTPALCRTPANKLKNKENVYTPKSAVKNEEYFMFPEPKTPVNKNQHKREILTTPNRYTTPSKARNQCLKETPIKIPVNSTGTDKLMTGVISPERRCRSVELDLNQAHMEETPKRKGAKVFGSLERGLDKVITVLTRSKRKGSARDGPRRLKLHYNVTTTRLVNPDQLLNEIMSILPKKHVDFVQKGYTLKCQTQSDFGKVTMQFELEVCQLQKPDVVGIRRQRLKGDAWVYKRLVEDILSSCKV

[1] = target: T27, RSK3(Kin.Dom.2-C-terminal) (Homo sapiens, UniProt Q15349); assay: KINOMEscan binding; conditions: read-out: Percent Control
T27 construct: RSK3(Kin.Dom.2-C-terminal); purchased Eurofins DiscoverX KINOMEscan

p38-beta = target: T28, p38-beta (Homo sapiens, UniProt Q15759); assay: KINOMEscan binding; conditions: read-out: Percent Control
T28 construct: purchased Eurofins DiscoverX KINOMEscan

TNK2 = target: T29, TNK2 (Homo sapiens, UniProt Q07912); assay: KINOMEscan binding; conditions: read-out: Percent Control
T29 construct: purchased Eurofins DiscoverX KINOMEscan

MKNK2 = target: T30, MKNK2 (Homo sapiens, UniProt Q9HBH9); assay: KINOMEscan binding; conditions: read-out: Percent Control
T30 construct: purchased Eurofins DiscoverX KINOMEscan

MLCK = target: T31, MLCK (Homo sapiens, UniProt Q32MK0); assay: KINOMEscan binding; conditions: read-out: Percent Control
T31 construct: purchased Eurofins DiscoverX KINOMEscan

[2] = oral, rat model; cited from earlier work
TIE1 = target: T32, TIE1 (Homo sapiens, UniProt P35590); assay: KINOMEscan binding; conditions: read-out: Percent Control
T32 construct: purchased Eurofins DiscoverX KINOMEscan

PLK2 = target: T33, PLK2 (Homo sapiens, UniProt Q9NYY3); assay: KINOMEscan binding; conditions: read-out: Percent Control
T33 construct: purchased Eurofins DiscoverX KINOMEscan

ERK4 = target: T34, ERK4 (Homo sapiens, UniProt P31152); assay: KINOMEscan binding; conditions: read-out: Percent Control
T34 construct: purchased Eurofins DiscoverX KINOMEscan

MAP4K3 = target: T35, MAP4K3 (Homo sapiens, UniProt Q8IVH8); assay: KINOMEscan binding; conditions: read-out: Percent Control
T35 construct: purchased Eurofins DiscoverX KINOMEscan

EPHA2 = target: T36, EPHA2 (Homo sapiens, UniProt P29317); assay: KINOMEscan binding; conditions: read-out: Percent Control
T36 construct: purchased Eurofins DiscoverX KINOMEscan

CDK8 = target: T37, CDK8 (Homo sapiens, UniProt P49336); assay: KINOMEscan binding; conditions: read-out: Percent Control
T37 construct: purchased Eurofins DiscoverX KINOMEscan

ERBB4 = target: T38, ERBB4 (Homo sapiens, UniProt Q15303); assay: KINOMEscan binding; conditions: read-out: Percent Control
T38 construct: purchased Eurofins DiscoverX KINOMEscan

TRKA = target: T39, TRKA (Homo sapiens, UniProt P04629); assay: KINOMEscan binding; conditions: read-out: Percent Control
T39 construct: purchased Eurofins DiscoverX KINOMEscan

PIK3CA(M1043I) = target: T40, PIK3CA(M1043I) (Homo sapiens, UniProt P42336, M1043I); assay: KINOMEscan binding; conditions: read-out: Percent Control
T40 construct: purchased Eurofins DiscoverX KINOMEscan
T40 sequence (P42336 whole entry M1043I): as the sequence (P42336 whole entry E545A) above, with A545E, M1043I counted along it

NEK6 = target: T41, NEK6 (Homo sapiens, UniProt Q9HC98); assay: KINOMEscan binding; conditions: read-out: Percent Control
T41 construct: purchased Eurofins DiscoverX KINOMEscan

ACVR2B = target: T42, ACVR2B (Homo sapiens, UniProt Q13705); assay: KINOMEscan binding; conditions: read-out: Percent Control
T42 construct: purchased Eurofins DiscoverX KINOMEscan

IKK-beta = target: T43, IKK-beta (Homo sapiens, UniProt O14920); assay: KINOMEscan binding; conditions: read-out: Percent Control
T43 construct: purchased Eurofins DiscoverX KINOMEscan

Question: What does the source list for CC(C)NC(=O)COc1cccc(-c2nc(Nc3ccc4[nH]ncc4c3)c3ccccc3n2)c1 [KD025, 2-(3-(4-((1H-indazol-5-yl)amino)quinazolin-2-yl)phenoxy)-N-isopropylacetamide]?
Answer: remaining binding at 10 µM (MAP4K4): 87%; remaining binding at 10 µM (SGK3): 79%; remaining binding at 10 µM (PIM1): 100%; remaining binding at 10 µM (MYO3B): 100%; remaining binding at 10 µM (YANK1): 80%; remaining binding at 10 µM (BMX): 69%; remaining binding at 10 µM (LTK): 49%; remaining binding at 10 µM (STK16): 62%; remaining binding at 10 µM (PKMYT1): 83%; remaining binding at 10 µM (RET(V804L)): 67%; remaining binding at 10 µM (MARK4): 66%; remaining binding at 10 µM (EPHA7): 100%; remaining binding at 10 µM (PYK2): 95%; remaining binding at 10 µM (TAOK3): 89%; remaining binding at 10 µM (PIK3CA(E545A)): 65%; remaining binding at 10 µM (WEE2): 82%; remaining binding at 10 µM (FGFR3(G697C)): 77%; remaining binding at 10 µM (KIT(V559D,V654A)): 92%; remaining binding at 10 µM (BMPR2): 72%; remaining binding at 10 µM (FLT4): 86%; remaining binding at 10 µM (CSF1R-autoinhibited): 91%; remaining binding at 10 µM (MYLK): 66%; remaining binding at 10 µM (CAMKK1): 94%; remaining binding at 10 µM (AMPK-alpha2): 75%; remaining binding at 10 µM (S6K1): 74%; remaining binding at 10 µM (MELK): 83%; remaining binding at 10 µM [1]: 89%; remaining binding at 10 µM (p38-beta): 93%; remaining binding at 10 µM (TNK2): 82%; remaining binding at 10 µM (MKNK2): 68%; remaining binding at 10 µM (MLCK): 100%; absolute bioavailability [2]: 37%; remaining binding at 10 µM (TIE1): 63%; remaining binding at 10 µM (PLK2): 94%; remaining binding at 10 µM (ERK4): 100%; remaining binding at 10 µM (MAP4K3): 78%; remaining binding at 10 µM (EPHA2): 59%; remaining binding at 10 µM (CDK8): 98%; remaining binding at 10 µM (ERBB4): 57%; remaining binding at 10 µM (TRKA): 61%; remaining binding at 10 µM (PIK3CA(M1043I)): 48%; remaining binding at 10 µM (NEK6): 80%; remaining binding at 10 µM (ACVR2B): 91%; remaining binding at 10 µM (IKK-beta): 100%
